Results: patent publication US11185100B2 (priority 2014, dated 2021)

Tests used:
Assay type in all cases: cell-based, cat
[1] = biological target: T1, T1R1/T1R3 receptor (Felis catus, UniProt E3UMS2); assay: PAM screening of transmembrane compounds with GMP and Ala on T1R1/T1R3 in HEK293 cells (Example 8); details: for T1R1/T1R3 PAM: transmembrane compound at 0.01, 0.1 and 1 mM with GMP + Ala mixtures (T1-T4), PAM if response greater than sum of compound alone and GMP+Ala alone
Excerpt: PAM Screening Method: HEK293 cells that stably express T1R3 and inducibly express T1R1 were exposed to transmembrane compound alone or in combination with Ala and GMP to activate the umami receptor. Activation of the T1R1/T1R3 receptor was detected by a change in intracellular calcium levels using a calcium sensitive fluorescent dye and/or a luminescent reporter system. […] A FLIPR® Tetra or a FlexStation® 3 was used for data capture.
Dose response curves were generated for each transmembrane compound at concentrations of 0 (buffer only), 0.01, 0.1 and 1 mM, wherein each of the three concentrations of transmembrane compound was tested in combination with 0.03 mM GMP+100 mM Ala (T1); 0.6 mM GMP+10 mM Ala (T2); 0.1 mM GMP+60 mM Ala (T3) and 0.3 mM GMP+60 mM Ala (T4). The T4 mixture was also tested in a 2-fold dilution series (the T4(X) Concentration). In these experiments, the first test concentration was 2× (2 times) the T4 concentration. The subsequent test concentrations were 2-fold dilutions from that (1×, 0.5× etc.). This dilution series was tested with or without the addition of the test compound at a constant 0.3 mM concentration.
Activation of the umami receptor was also determined in the presence of 1 mM GMP+100 mM Ala to generate a “maximum” umami receptor activation level.

[2] = biological target: T1, T1R1/T1R3 receptor; assay: Agonist screening of transmembrane compounds on T1R1/T1R3 in HEK293 cells (Example 8); details: for T1R1/T1R3 agonist: transmembrane compound tested at 0.01, 0.1 and 1 mM, HEK293 cells expressing T1R1/T1R3, calcium readout
Procedure: Agonist Screening Method: HEK293 cells that stably express T1R3 and inducibly express T1R1 were exposed to a transmembrane compound. Activation of the T1R1/T1R3 receptor was detected by a change in intracellular calcium levels using a calcium sensitive fluorescent dye and/or a luminescent reporter system. […] A FLIPR® Tetra or a FlexStation® 3 was used for data capture.
Each transmembrane compound was tested at concentrations of 0.01 mM, 0.1 mM, and 1 mM. […] To generate the dose response curves, the transmembrane compound was tested at concentrations of between 0.0001 mM and 1.0 mM in the presence of GMP and Ala.

[3] = biological target: T1, T1R1/T1R3 receptor; assay: Activation of T1R1/T1R3 receptor by transmembrane compounds and nucleotide derivatives, conducted as in Examples 1, 2 and 5 (Example 7)
Excerpt: (§1) Methods: HEK293 cells that stably express T1R3 and inducibly express T1R1 were exposed to nucleotide derivatives alone to activate the umami receptor. Activation of the T1R1/T1R3 receptor was detected by a change in intracellular calcium levels using a calcium sensitive fluorescent dye. Cells that express T1R3 but not T1R1 were used as a control. A FLIPR® Tetra or a FlexStation® 3 was used for data capture.
as §1, with “alone or in combination with one or more amino acids and/or one or more nucleotides” for “alone”, “dye and/or a luminescent reporter system.” for “dye.”
as §1, with “transmembrane compounds” for “nucleotide derivatives”, “alone or in combination with one or more amino acids and/or one or more nucleotides” for “alone”
In each experiment, serial dilutions of up to 10 mM of the transmembrane compound were added to the T1R1/T1R3-expressing cells.

| SMILES | T1R1/T1R3 PAM [1] | T1R1/T1R3 agonist [2] | other results |
| --- | --- | --- | --- |
| O=C(CN1C(=O)C(=O)N(Cc2ccccc2)C1=O)c1ccc2c(c1)OCCCO2 [1-benzyl-3-(2-(3,4-dihydro-2H-benzo[b][1,4]dioxepin-7-yl)-2-oxoethyl)imidazolidine-2,4,5-trione] |  |  | PAM profile assessment (activation of T1R1/T1R3 in the presence of GMP and Alanine) [1]: PAM activity |
| O=C(CN1C(=O)C(=O)N(CCc2cccs2)C1=O)c1cccc2ccccc12 [Formula 11, 1-(2-(naphthalen-1-yl)-2-oxoethyl)-3-(2-(thiophen-2-yl)ethyl)imidazolidine-2,4,5-trione] | No | No |  |
| CCCC(CCC)NC(=O)c1ccc2c(c1)OCO2 [Formula 14, N-(heptan-4-yl)benzo[d][1,3]dioxole-5-carboxamide] | Yes | Yes |  |
| O=C1C(=O)N(Cc2ccccc2)C(=S)N1Cc1ccccc1 [Formula 13, 1,3-dibenzyl-2-thioxoimidazolidine-4,5-dione] | No | No |  |
| O=C(CN1C(=O)C(=O)N(Cc2ccccc2)C1=O)c1ccc2c(c1)CCC2 [Formula 2, 1-benzyl-3-(2-(2,3-dihydro-1H-inden-5-yl)-2-oxoethyl)imidazolidine-2,4,5-trione] | No | No |  |
| COC(=O)C(NCc1ccccc1)c1ccccc1 (stereo not drawn) [Formula 19, Methyl-2-benzylamino-2-phenylacetate] | Yes | Yes |  |
| COC(=O)[C@@H](Cc1ccccc1)NCc1ccccc1.Cl [Formula 16, N-Benzyl-D-Phenylalanine methyl ester hydrochloride] | Yes | Yes |  |
| COC(=O)[C@H](CC(C)C)NCc1ccccc1.Cl [Formula 18, Benzyl-L-leucine methyl ester hydrochloride] | Yes | Yes |  |
| COC(=O)[C@H](CC(C)C)NCc1ccccc1.Cl [Benzyl-L-leucine methyl ester hydrochloride] |  |  | PAM profile assessment (activation of T1R1/T1R3 in the presence of GMP and Alanine) [1]: PAM activity; agonist profile assessment (activation of T1R1/T1R3 by the compound alone) [2]: agonist |
| O=C(CN1C(=O)C(=O)N(CCc2cccs2)C1=O)c1ccc2c(c1)OCO2 [Formula 7, 1-(2-(benzo[d][1,3]dioxol-5-yl)-2-oxoethyl)-3-(2-(thiophen-2-yl)ethyl)imidazolidine-2,4,5-trione] | No | No |  |
| Cc1ccc(CNC(Cc2ccccc2)C(=O)O)cc1 (stereo not drawn) [Formula 23, 2-((4-methylbenzyl)amino)-3-phenylpropanoic acid] | No | No |  |
| O=C(O)[C@H](Cc1ccc(O)cc1)NCc1ccccc1 [Formula 22, N-Benzyl-L-Tyrosine] | No | No |  |
| N#Cc1cccc(NC(=O)CN2C(=O)C(=O)N(Cc3ccccc3)C2=O)c1 [Formula 9, 2-(3-benzyl-2,4,5-trioxoimidazolidin-1-yl)-N-(3-cyanophenyl)acetamide] | No | No |  |
| O=C1CC(=O)N(Cc2ccccc2)C(=O)N1Cc1ccccc1 [Formula 24, 1,3-dibenzylpyrimidine-2,4,6(1H,3H,5H)-trione] | No | Yes |  |
| O=C1CC(=O)N(Cc2ccccc2)C(=O)N1Cc1ccccc1 [1,3-dibenzylpyrimidine-2,4,6(1H,3H,5H)-trione] |  |  | agonist profile assessment (activation of T1R1/T1R3 by the compound alone) [2]: agonist activity; Max resp ΔF/F +Alanine (20 mM) [3]: 0.2925 ΔF/F; Thres +Alanine (20 mM) [3]: 0.1 mM; Max resp % of Ala +IMP (0.2 mM) ([3]; +IMP (0.2 mM)): 35.7 % of Ala; Max resp ΔF/F +IMP (0.2 mM) ([3]; +IMP (0.2 mM)): 0.2775 ΔF/F; Thres +IMP (0.2 mM) ([3]; +IMP (0.2 mM)): 0.1 mM; Max resp % of IMP +Alanine (20 mM) ([3]; hek293 cells): 42.7 % of IMP; Activity ([3]; modulation of T1R1/T1R3): active |
| O=C(CN1C(=O)C(=O)N(Cc2ccccc2)C1=O)c1ccc(Cl)s1 [1-benzyl-3-(2-(5-chlorothiophen-2-yl)-2-oxoethyl)imidazolidine-2,4,5-trione] |  |  | PAM profile assessment (activation of T1R1/T1R3 in the presence of GMP and Alanine) [1]: PAM activity |
